# In patent publication US20260062422A1 (Halda Therapeutics OpCo, Inc., priority 2022, published 2026):
# Key:
# [1] = system: T-Rex 293 cell line SC3 cells having increased expression of androgen receptor protein due to exposure to doxycycline; experiment: Cellular growth inhibition, T-Rex 293 SC3 cells with doxycycline (androgen receptor induced), CellTiter-Glo; format: cell-based; conditions: 72 h, T-Rex 293 SC3 cells with 10 ng/mL doxycycline (increased androgen receptor expression)
# Procedure, shortened: (§1)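 Growth inhibition was compared in a T-Rex 293 clone with and without doxycycline (10 ng/mL)-driven androgen receptor overexpression. Compounds were applied for 72 h in hormone-depleted serum, and GI50 came from four-parameter curves of CellTiter-Glo signal.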
# T47D cells = experiment: Cellular growth inhibition assay for T47D cells, CellTiter-Glo; format: cell-based, human; conditions: Homo sapiens, T47D, 72 h, 72 hours treatment, CellTiter-Glo 2.0 cell viability
# Procedure, shortened: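 Luminescence from CellTiter-Glo 2.0 after 72 h of compound exposure gives the viability signal. Cells grew in insulin-supplemented (0.2 units/mL) DMEM with 10% FBS and were treated one day after seeding at 0.5% DMSO. GI50 values come from four-parameter nonlinear regression.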
# [2] = system: T-Rex 293 cell line SC3 cells lacking increased expression of androgen receptor protein; experiment: Cellular growth inhibition, T-Rex 293 SC3 cells without doxycycline, CellTiter-Glo; format: cell-based; conditions: 72 h, T-Rex 293 SC3 cells not exposed to doxycycline, CellTiter-Glo 2.0
# Procedure, shortened: as §1
GI50 (T47D cells) [µM],SMILES,GI50 [1] [µM],GI50 [2] [µM]
0.5 to 1.5,"COCC[C@@H]1N=C(c2ccc(CCCOC3CCN(c4ncc(C(=O)N[C@H]5C(C)(C)[C@H](Oc6ccc(C#N)c(Cl)c6)C5(C)C)cn4)CC3)cc2)c2c(sc(C)c2C)-n2c(C)nnc21 [Compound I-227, N-[3-(3-chloro-4-cyano-phenoxy)-2,2,4,4-tetramethyl-cyclobutyl]-2-[4-[3-[4-[(9S)-9-(2-methoxyethyl)-4,5,13-trimethyl-3-thia-1,8,11,12-tetrazatricyclo[8.3.0.02,6]trideca-2(6),4,7,10,12-pentaen-7-yl]phenyl]propoxy]-1-piperidyl]pyrimidine-5-carboxamide]",< 0.5,0.5 to 1.5
< 0.5,"Cc1sc2c(c1C)C(c1ccc(CCCOC3CCN(c4ncc(C(=O)N[C@H]5C(C)(C)[C@H](Oc6ccc(C#N)c(Cl)c6)C5(C)C)cn4)CC3)cc1)=N[C@@H](C)c1nnc(C)n1-2 [Compound I-228, N-[3-(3-chloro-4-cyano-phenoxy)-2,2,4,4-tetramethyl-cyclobutyl]-2-[4-[3-[4-[(9S)-4,5,9,13-tetramethyl-3-thia-1,8,11,12-tetrazatricyclo [8.3.0.02,6]trideca-2(6),4,7,10,12-pentaen-7-yl]phenyl]propoxy]-1-piperidyl]pyrimidine-5-carboxamide]",< 0.5,0.5 to 1.5
< 0.5,"Cc1sc2c(c1C)C(c1ccc(OCCOC3CCN(c4ncc(C(=O)N[C@H]5C(C)(C)[C@H](Oc6ccc(C#N)c(Cl)c6)C5(C)C)cn4)CC3)cc1)=N[C@@H](CC(=O)OC(C)(C)C)c1nnc(C)n1-2 [Compound I-235, tert-butyl 2-((S)-4-(4-(2-((1-(5-(((1r,3r)-3-(3-chloro-4-cyanophenoxy)-2,2,4,4-tetramethylcyclobutyl)carbamoyl)pyrimidin-2-yl)piperidin-4-yl)oxy)ethoxy)phenyl)-2,3,9-trimethyl-6H-thieno[3,2-f][1,2,4]triazolo[4,3-a][1,4]diazepin-6-yl)acetate]",< 0.5,> 3
< 0.5,Cc1sc2c(c1C)C(c1ccc(C3CC3C3CC4(CCN(c5ncc(C(=O)N[C@H]6C(C)(C)[C@H](Oc7ccc(C#N)c(Cl)c7)C6(C)C)cn5)CC4)C3)cc1)=N[C@@H](Cc1ncco1)c1nnc(C)n1-2 (stereo partly drawn) [Compound I-237],< 0.5,> 3
< 0.5,Cc1sc2c(c1C)C(c1ccc(CCC3CC4(CCCN(c5ncc(C(=O)N[C@H]6C(C)(C)[C@H](Oc7ccc(C#N)c(Cl)c7)C6(C)C)cn5)C4)C3)cc1)=N[C@@H](Cc1ncco1)c1nnc(C)n1-2 [Compound I-241],< 0.5,< 0.5
< 0.5,Cc1sc2c(c1C)C(c1ccc(C#CC3CC4(CCN(c5ncc(C(=O)N[C@H]6C(C)(C)[C@H](Oc7ccc(C#N)c(Cl)c7)C6(C)C)cn5)CC4)C3)cc1)=N[C@@H](Cc1ncco1)c1nnc(C)n1-2 [Compound I-267],< 0.5,< 0.5
< 0.5,Cc1sc2c(c1C)C(c1ccc(N3CC(CC4CCN(c5ncc(C(=O)N[C@H]6C(C)(C)[C@H](Oc7ccc(C#N)c(Cl)c7)C6(C)C)cn5)CC4)C3)cc1)=N[C@@H](C)c1nnc(C)n1-2 [Compound I-270],< 0.5,> 3
0.5 to 1.5,Cc1sc2c(c1C)C(c1ccc(N3CC(C4CCN(c5ncc(C(=O)N[C@H]6C(C)(C)[C@H](Oc7ccc(C#N)c(Cl)c7)C6(C)C)cn5)CC4)C3)cc1)=N[C@@H](C)c1nnc(C)n1-2 [Compound I-271],< 0.5,> 3
< 0.5,Cc1sc2c(c1C)C(c1ccc(OC3CC4(C3)CC3(CCN(c5ncc(C(=O)N[C@H]6C(C)(C)[C@H](Oc7ccc(C#N)c(Cl)c7)C6(C)C)cn5)CC3)C4)cc1)=N[C@@H](Cc1ncco1)c1nnc(C)n1-2 [Compound I-283],< 0.5,> 3
< 0.5,Cc1sc2c(c1C)C(c1ccc(CC3CC4(CCN(c5ncc(C(=O)N[C@H]6C(C)(C)[C@H](Oc7ccc(C#N)c(Cl)c7)C6(C)C)cn5)CC4)C3)cc1)=N[C@@H](C)c1nnc(C)n1-2 [Compound I-436],< 0.5,1.5 to 3
